In article PMC9412875, “^64Cu-DOTHA2-PSMA, a Novel PSMA PET Radiotracer for Prostate Cancer with a Long Imaging Time Window” (Pharmaceuticals, 2022):
Entries after “also recorded” stand apart in the source; their conditions may differ.

What was measured:
LNCaP cells = assay: Cellular efflux assay; format: cell-based, human; conditions: 1h incubation, efflux time 3 h
[1] = Plasma stability (ex vivo) and protein binding in mouse serum/plasma; format: in vitro ADME; conditions: for 64Cu released from Proteins / 64Cu-DOTHA2-PSMA Released from Proteins: after 10% TFA; for proportion of free 64Cu: excess natCu-DOTHA2-PSMA
Procedure: Plasma stability studies were carried out by incubating ^64Cu-DOTHA2-PSMA (50 MBq in 250 μL PBS buffer) in 250 μL of mouse serum at 37 °C for up to 24 h. The plasma was then mixed twice with ethanol (1:1) to precipitate all the proteins. The samples were subjected to vortex mixing for 1 min and then centrifugation for 10 min at 7000 rpm. Plasma proteins were separated from the soluble component by ultracentrifugation and the radioactivity was assessed. The supernatant fraction was assayed by radio-TLC on C18 plates and by UPLC; free ^64Cu(OAc)2 and ^64Cu-DOTHA2-PSMA were used as standards. The radio-TLCs were eluted with 0.1 M sodium citrate buffer at pH 5.5 using an Instant Imager system (BioScan, DC, U.S.A.) for radiodetection. The precipitated proteins were again subjected to 10% TFA, vortexed for 2–3 min, and then centrifuged for 10 min at 7000 rpm. The separation and analysis for the supernatant and the proteins were performed in the same manner.
The protein binding ability was evaluated by incubating ^64Cu-DOTHA2-PSMA (100 MBq) in phosphate buffer (250 μL, pH 7) at 37 °C and fresh mouse serum (250 μL) and for 1 h, 4 h, and 24 h. Plasma proteins were precipitated by the addition of ethanol (1:1, v/v) to the plasma samples, followed by centrifugation at 7000 rpm for 5 min at room temperature and separation of the supernatant. This process was repeated three times with the same volume of ethanol, and the supernatants were pooled. The radioactivity content of the supernatant and the precipitated protein were measured in a dose calibrator to obtain the protein binding percentage.

[2] = In vivo stability (blood, urine, liver) after injection; set-up: species or system balb/c mice
Procedure: For metabolite analysis, three balb/c mice were injected with a bolus of 32 MBq of ^64Cu-DOTHA2-PSMA in 0.3 mL saline by tail vein (real IA: 26.4–39.0 MBq). Blood was collected at 1 h p.i. (0.01–0.1 mL) in heparin-coated tubes and then centrifuged at 10,000 rpm for 10 min. Subsequently, the pellet and supernatant were separated, and the relative activity was determined. Radio-TLC was performed to assess the stability of the radiolabeled compound in the blood and in plasma. Two balb/c mice were injected with 45 MBq (real IA: 44.7–45.5 MBq). Urine was collected at 1 h p.i. and analyzed by UPLC. Two balb/c mice were injected with 59 MBq and then euthanized and dissected at 2 h p.i. to harvest the liver (real IA: 58.9–59.3 MBq). The livers were promptly washed and put on ice. They were homogenized with an ice-cold piston with 1 mL of water, extracted, centrifuged (14,000 rpm; 3 min), and mixed with 1 mL of acetonitrile before 4 further cycles of centrifugation and the collection of supernatants. All the pellets were mixed with 1 mL of 10% TFA and centrifuged, and the final supernatant was analyzed by Radio-TLC. The activity was measured in all the supernatants.

LNCaP tumor = assay: PET imaging of LNCaP tumor-bearing mice; format: in vivo, NRG mice
Procedure: All the experiments were conducted according to a protocol approved by the Animal Ethics Committee of the Université de Sherbrooke and were in accordance with the guidelines of the Canadian Council on Animal Care. All animal manipulations that could cause pain, stress, or that required immobilization were performed under isoflurane anesthesia (2% in 2 L/min oxygen) with a heating pad or bed. When protocols required animal death (e.g., biodistribution) or ethical limits (e.g., tumor size) were reached, euthanasia was performed by CO2 inhalation under isoflurane anesthesia. […] For PET imaging, NRG mice were used (The Jack Laboratory, 7–10 weeks old, and 19–26 g at time of experiment). A total of 200 µL of a 1:1 Matrigel/PBS mixture containing […] LNCaP cells was injected subcutaneously on each shoulder of NRG mice. Experiments were initiated 2 to 4 weeks after inoculation when tumors reached a diameter between 5 and 10 mm.
Dynamic (0–1 h p.i.) and static (4 h, 20 min long and 24 h p.i., 1h long) PET assays were performed in combination with 5 min CT in NRG mice injected with 8 MBq of ^64Cu-DOTHA2-PSMA in 0.3 mL of saline through the tail vein (LabPET 8/-Triumph; Gamma Medica, Northridge, CA, USA). Blocking was achieved by the co-injection of 20 nmol of ^natCu-DOTHA2-PSMA (n = 3 per group). We selected this blocking agent because its pharmacokinetics are similar to ^64Cu-DOTHA2-PSMA. PET images were reconstructed using the three-dimensional maximum likelihood […] method (MLEM-3D) algorithm with 20 iterations and a 60 mm field-of-view (Gamma Medica). The analyses were conducted using AMIDE software 1.0.4. Quantitative image data were reported as %IA per volume (centimeter cube, cc).

[3] = ex vivo, mouse plasma, 100 equiv. natCu-DOTHA2-PSMA, 1 h
[4] = ex vivo, mouse plasma, 100 equiv. natCu-DOTHA2-PSMA, 4 h
[5] = ex vivo, mouse plasma, 100 equiv. natCu-DOTHA2-PSMA, 24 h
[6] = in mice, 1 h p.i., after 10% TFA

## CN([O-])C(=O)CN1CCN(CC(=O)NCC2CCC(C(=O)NC(Cc3ccc4ccccc4c3)C(=O)NCCCCC(NC(=O)NC(CCC(=O)O)C(=O)O)C(=O)O)CC2)CCN(CC(=O)N(C)[O-])CCN(CC(=O)N(C)O)CC1.[64Cu+2] (stereo not shown) [^64Cu-DOTHA2-PSMA]
LNCaP cells
  Retained activity normalized to time 0: 76.53%
[1]; 37 °C, up to 24 h
  demetallation or degradation in mouse serum (radio-UPLC, radio-TLC): No major demetallation or degradation
[1]; ex vivo, 4 h
  change of signal bound to plasma proteins on adding excess natCu-DOTHA2-PSMA: 1%
[1]; ex vivo, 24 h
  change of signal bound to plasma proteins on adding excess natCu-DOTHA2-PSMA: 6%
[1]; ex vivo, mouse plasma 37 °C, 1 h, % of total signal
  64Cu in the Supernatant: 0%
[1]; ex vivo, mouse plasma 37 °C, 4 h, % of total signal
  64Cu in the Supernatant: 1.98%
[1]; ex vivo, mouse plasma 37 °C, 24 h, % of total signal
  64Cu in the Supernatant: 1.28%
[1]; [3]
  64Cu and 64Cu-DOTHA2-PSMA Bound to Plasma Proteins: 24%
  64Cu in the Supernatant: 0%
  64Cu released from Proteins: 0.82%
[1]; [4]
  64Cu and 64Cu-DOTHA2-PSMA Bound to Plasma Proteins: 33%
  64Cu in the Supernatant: 3.35%
  64Cu released from Proteins: 0.84%
[1]; [5]
  64Cu and 64Cu-DOTHA2-PSMA Bound to Plasma Proteins: 30%
  64Cu in the Supernatant: 5.60%
  64Cu released from Proteins: 2.14%
[1]; ex vivo, mouse plasma, 1 h
  64Cu and 64Cu-DOTHA2-PSMA Bound to Plasma Proteins: 24%
  signal attributed to free 64Cu overall (supernatant and precipitate): 0.79%
  64Cu-DOTHA2-PSMA Released from Proteins: 15%
  proportion of free 64Cu: 0.82%
[1]; ex vivo, mouse plasma, 1 h, % of total signal
  64Cu released from Proteins: 0.79%
[1]; ex vivo, mouse plasma, 4 h
  64Cu and 64Cu-DOTHA2-PSMA Bound to Plasma Proteins: 34%
  signal attributed to free 64Cu overall (supernatant and precipitate): 2.62%
  64Cu-DOTHA2-PSMA Released from Proteins: 21%
  proportion of free 64Cu: 4.19%
[1]; ex vivo, mouse plasma, 4 h, % of total signal
  64Cu released from Proteins: 0.64%
[1]; ex vivo, mouse plasma, 24 h
  64Cu and 64Cu-DOTHA2-PSMA Bound to Plasma Proteins: 36%
  free 64Cu, share of the plasma supernatant signal (UPLC): less than 3%
  64Cu-DOTHA2-PSMA Released from Proteins: 21%
  proportion of free 64Cu: 7.75%
[1]; ex vivo, mouse plasma, 24 h, % of total signal
  64Cu released from Proteins: 0.65%
[2]; balb/c mice, 2 h p.i., radio-TLC
  64Cu metabolite observed in the liver: 25%
[2]; balb/c mice, urine 1 h p.i., UPLC
  tracer form found in urine: intact ^64Cu tracer was found in urine; also recorded: no metabolite was observed in urine
[2]; in mice, 1 h p.i.
  64Cu and 64Cu-DOTHA2-PSMA Bound to Plasma Proteins: 48%
  64Cu dissociation in combined supernatant and plasma proteins: 4.58%
[2]; [6]
  64Cu released from Proteins: 1.98%
  64Cu-DOTHA2-PSMA Released from Proteins: 31%
[2]; in mice, blood 1 h p.i., % of total plasma signal
  64Cu in the Supernatant: 2.60%
[2]; mice, 1 h p.i.
  free 64Cu in blood (peak in plasma supernatant, radio-TLC): 5%
[2]; mice, 2 h p.i., radio-TLC
  free 64Cu in the liver: no free ^64Cu was observed; also recorded: free ^64Cu was not seen in liver
LNCaP tumor; 1 h p.i., co-injection of blocking agent (20 nmol natCu-DOTHA2-PSMA)
  tumor uptake (PET): 4.78 ± 0.96 % IA/cc
LNCaP tumor; 4 h p.i.
  liver uptake (PET, peak): 26.8 ± 5.3 % IA/cc
LNCaP tumor; 4 h p.i., co-injection of blocking agent (20 nmol natCu-DOTHA2-PSMA)
  tumor uptake (PET): 7.46 ± 1.07 % IA/cc
LNCaP tumor; 24 h p.i., co-injection of blocking agent (20 nmol natCu-DOTHA2-PSMA)
  tumor uptake (PET): 8.62 ± 0.74 % IA/cc
LNCaP tumor; LNCaP tumor, NRG mice, 1 h p.i., non-blocked
  tumor uptake (PET): 14.0 ± 5.0 % IA/cc
LNCaP tumor; LNCaP tumor, NRG mice, 4 h p.i., non-blocked
  tumor uptake (PET): 23.8 ± 11.5 % IA/cc
LNCaP tumor; LNCaP tumor, NRG mice, 24 h p.i., non-blocked
  tumor uptake (PET): 18.5 ± 6.6 % IA/cc
LNCaP tumor; PET, LNCaP tumor
  time of highest tumoral uptake: 4 h p.i.
LNCaP tumor; dynamic PET
  time of peak kidney uptake, calyxes: 10 min p.i.
  time of peak kidney uptake, cortex: 5 min p.i.
LNCaP tumor; from 1 h p.i.
  tumor-to-kidney ratios: greater than 1
LNCaP tumor; time-activity curves
  time of peak of urinary clearance (kidney calyxes and cortex signals): ≤ 10 min
